In patent US20060084672A1, “Method for modification of y-secretase activity through inhibition of Fkbp13” (The Hospital for Sick Children, priority 2004, published 2006):

Legend:
PEN-2 = PEN-2 protein levels in transfected Drosophilia S2 cells (Western analysis); assay type: cell-based; conditions: concentration not given
Excerpt: (§1) In order to determine if Fkbp13 can also affect the stability of other components of the γ-secretase complex, Drosophilia S2 cells were transfected with tagged constructs expressing APH-1, PEN-2 or Nct and then examined for the effects of FK506 on protein levels.
(§2) cDNA's encoding APH-1, PEN-2 and Nct were subcloned into pAc5.1/V5-HisA or pIB/V5-His TOPO and transiently transfected into Drosophilia S2 cells using cellfectin according to the manufacturer's protocol (Invitrogen). Cells were collected between 24-48 hours for Western analysis using the following antibodies: monoclonal anti-V5 1:5000(Invitrogen), monoclonal anti-HA 1:2000(Roche), monoclonal anti-FLAG M2 1:5000(Sigma) and monoclonal anti-β-tubulin 1:1000 (DSHB).
(§3) In contrast, no effect was observed on the levels of either APH-1 or Nct (FIG. 4A). […] Drosophilia S2 cells were transfected with tagged versions of APH-1, PEN-2 or Nct and treated with 50 μM FK506 over a 24 hour period. No effect was observed on the levels of APH-1, Nct or β-tubulin control. Similarly, no effect was observed using either DMSO (control) or the known γ-secretase inhibitor, DAPT.

γ-secretase = molecular target: T1, γ-secretase (Homo sapiens, UniProt P49768); assay: Aβ1-40 sandwich ELISA in Cos-7 cells stably expressing APP C99 and transfected with human PS1; assay type: cell-based
T1 construct: expressed in transfected cells; host or cells: Cos-7 stably expressing APP C99 (pCEP4-SPA4CT-DA)
Method: To determine the effect of drug treatment on Psn stability, HEK293 cells were transiently co-transfected with psn and Fkbp13 constructs. 24 hours after transfection, 100 mm dishes of transfected HEK293 cells were treated with 5 μM FK506 (CALBIOCHEM), 1 μM Rapamycin (CALBIOCHEM) or DMSO (control), harvested at various time points and analyzed by Western blotting techniques. To measure Aβ40, Cos-7 cells were transfected with pCEP4-SPA4CT-DA (gift from Dr. Gunter Merdes, ZMBH, University of Heidelberg) that contains an APP^C99 cDNA using lipofectin (Gibco) according to the manufacturers protocol. Cells stably expressing APP^C99 were selected using 300 μg/ml hygromycin and maintained in DMEM medium containing 10% FBS, […] penicillin-streptomycin and 100 μg/ml hygromycin. These cells were then transiently transfected with plasmids carrying human PS1. 48 hours after transfection, cells were starved in serum-free DMEM medium for 2 hours, then treated with 1 μm of the γ-secretase inhibitor DAPT or 0.5 μm of the Fkbp13 inhibitor rapamycin or FK506 respectively, in DMEM medium containing 5% FBS o/n. Cells then were harvested and lysed and the conditioned lysates were used to measure Aβ1-40 by sandwich ELISA as described in (Yan et al. Nature 402:533-537 1999)using 6E10 (Senetek) as the capture antibody and the polyclonal Pan-β-Amyloid (Oncogene) for detection of Aβ40. […]

APH-1 = APH-1 protein levels in transfected Drosophilia S2 cells (Western analysis); assay type: cell-based; conditions: 50 μM FK506 over a 24 hour period
Excerpt: as §1, §2, §3

Fkbp13 = Fkbp13 levels in HEK293 cells transfected with Fkbp13 and Psn (Western blot); assay type: cell-based, Drosophila; conditions: treated for 1-24 hours
Method: HEK293 cells were maintained at 37° C. and 5% CO2 in α-minimal essential medium (Hyclone) supplemented with 10% heat-inactivated fetal bovine serum and plated 24 hours before transfection. For each 10 cm tissue culture dish, 12-16 μg cDNA was used. HEK293 cells were transiently transfected with plasmids encoding Drosophila Rya-r44f, Fkbp13, or psn using calcium phosphate precipitation. The cells were harvested 40-42 hours afer transfection.
Protein quantification, SDS-polyacrylamide gel electrophoresis (5-12% or 8-12% gradient gel, or 10% SDS-PAGE) and immunoblot analysis were carried out as described previously (Guo et al. Journal of Cell Science 113:3499-3508 2000) using the monoclonal antibodies, anti-β-actin and anti-FLAG (Sigma), anti-GFP (Santa Cruz Biotechnology), anti-HA (12c-A5, Roche), anti-β-tubulin (Developmental Studies Hybridoma Bank), anti-Xpress and anti-V5 (Invitrogen) and a polyclonal anti-GFP (Santa Cruz Biotechnology). Microsomal fractions were prepared from cells using a detergent-free protocol. […]
(§4) To determine the effect of drug treatment on Psn stability, HEK293 cells were transiently co-transfected with psn and Fkbp13 constructs. 24 hours after transfection, 100 mm dishes of transfected HEK293 cells were treated with 5 μM FK506 (CALBIOCHEM), 1 μM Rapamycin (CALBIOCHEM) or DMSO (control), harvested at various time points and analyzed by Western blotting techniques. […]

Nct = Nct protein levels in transfected Drosophilia S2 cells (Western analysis); assay type: cell-based; conditions: 50 μM FK506 over a 24 hour period
Excerpt: as §1, §2, §3

Actin = Actin levels in HEK293 cells transfected with Fkbp13 and Psn (Western blot); assay type: cell-based; conditions: treated for 1-24 hours
Method: Protein quantification, SDS-polyacrylamide gel electrophoresis (5-12% or 8-12% gradient gel, or 10% SDS-PAGE) and immunoblot analysis were carried out as described previously (Guo et al. Journal of Cell Science 113:3499-3508 2000) using the monoclonal antibodies, anti-β-actin and anti-FLAG (Sigma), anti-GFP (Santa Cruz Biotechnology), anti-HA (12c-A5, Roche), anti-β-tubulin (Developmental Studies Hybridoma Bank), anti-Xpress and anti-V5 (Invitrogen) and a polyclonal anti-GFP (Santa Cruz Biotechnology). Microsomal fractions were prepared from cells using a detergent-free protocol. All steps were performed at <4° C. Cell pellets were resuspended in 300 μl hypo-osmotic buffer (20 mM Tris/HCl, pH 7.5) supplemented with complete protease inhibitor (Roche), homogenized through a 27G needle and sonicated. Nuclei were removed by centrifugation (1200 g, 25 minutes) and the post-nuclear supernatant (containing membrane and soluble fractions) was denatured for 5 minutes at 100° C. in SDS-PAGE sample buffer. […]
as §4

human PS-1 = assay: 35S-methionine pulse-chase of PS1 stability in Cos-7 cells; assay type: cell-based; conditions: Cos-7 cells transfected with human PS-1, in the presence of FK506; without FK506 3.5±0.2 h
Method: In order to confirm that FK506 was affecting the stability of PS1 a pulse-chase of ^35S-methionine was performed and the amount of PS1 remaining after various chase periods was measured by immunoprecipitation and autoradiography.
Pulse-chase labeling of cells was performed using TRAN ^35S-LABEL™ Metabolic Labeling Reagent (ICN). Cos-7 cells were transiently transfected with human PS-1. After 48 hours, cells were washed with PBS and then starved in the presence of methionine and cysteine free DMEM (Invitrogen) containing 10% dialyzed fetal bovine serum for 1 hour at 37° C. Cells were then incubated with [^35S] methionine (400 μCi/ml) in the presence or absence of FK506 for an additional 2 hours. The cells were then washed with 10 ml of PBS twice and chased with DMEM containing the indicated reagents for various times. Cells were then harvested and lysed in IP buffer and TCA precipitated to quantify the incorporation of ^35S-methionine. Equal amounts of microsomal fractions from radioactive cells were then incubated with 2 μg of anti-human PS1. Subsequently, […] of protein A agarose beads (Invitrogen) were added to the IP reactions and rotated for 2 hours at 4° C. The beads were then washed 4 times with IP washing buffer, denatured in 2× SDS-PAGE sample buffer and run on 12% SDS-PAGE.

| SMILES | effect of DAPT on protein levels (PEN-2) in S2 cells (PEN-2) | β-amyloid peptide production (in words) (γ-secretase; APP C99 + human PS1, 1 μm DAPT or 0.5 μm rapamycin o/n) | levels of APH-1 (APH-1) | decrease in the levels of β-amyloid peptide (γ-secretase; APP C99 + human PS1, 0.5 μm FK506 o/n, vs untreated or DMSO treated controls) [%] | levels of Fkbp13 (Fkbp13) | levels of Nct (Nct) | levels of Actin (Actin) | PS1 half-life (human PS-1) [h] |
| --- | --- | --- | --- | --- | --- | --- | --- | --- |
| C[C@H](NC(=O)Cc1cc(F)cc(F)c1)C(=O)N[C@H](C(=O)OC(C)(C)C)c1ccccc1 [DAPT] | no effect | comparable |  |  |  |  |  |  |
| C=CC[C@@H]1/C=C(\C)C[C@H](C)C[C@H](OC)[C@H]2O[C@@](O)(C(=O)C(=O)N3CCCC[C@H]3C(=O)O[C@H](/C(C)=C/[C@@H]3CC[C@@H](O)[C@H](OC)C3)[C@H](C)[C@@H](O)CC1=O)[C@H](C)C[C@@H]2OC [FK506] |  |  | no effect | 80 | no effect | no effect | no effect | 1.25 ± 0.3 |
